Test results taken from article PMC10508631, “Development of an antibody fused with an antimicrobial peptide targeting Pseudomonas aeruginosa: A new approach to prevent and treat bacterial infections” (PLOS Pathogens, 2023).
≈ marks a conversion by molar mass, not a printed value. Read-outs that look alike come from different tables or passages of the source. Where a SMILES comes first, the peptide text is derived from it.

What was measured:
293T human cell line = test: Mammalian cell cytotoxicity (CellTiter Glo); assay type: cell-based
Method: On day one, cells from an established 293T human cell line were seeded onto 96-well flat-bottom white plates (10,000 293T cells/well). On day two, dilution plates were prepared by diluting compound in cell growth medium to two times the final starting concentration and then carrying out serial two-fold dilutions across the plate. Medium from the cell growth assay plates was then aspirated, and 50 μl from the compound dilution plates were transferred to the assay plates. Fifty microliters of fresh media were then added to all the wells. The plates were incubated at 37°C, 5% CO2 for three days. […]. Media from the assay plates was aspirated, and 100 μl of CellTiter Glo/growth media mix was added to all wells. After five minutes, luminescence was read, and% inhibition vs. compound concentration was plotted.

P. aeruginosa ATCC 39324 = assay type: cell-based, Pseudomonas aeruginosa
Method: (§1) All plates were placed at 37°C overnight.

S. aureus 29213 = test system: S. aureus 29213
Method: (§2) MICs and a killing assay were performed in this study. MICs were determined according to CLSI guidelines, using 2-fold serial compound dilutions in 96-well microtiter plates. Briefly, compounds were diluted in water across a mother plate and then 2 μl were stamped to assay plates—one plate for each strain to be tested. Bacterial strains were sub-cultured overnight on agar plates at 37°C. […] These concentrated cultures were diluted 1:200 in growth media to approximately 5 x 10^5 cells/ml. All assay plates received 100 μL diluted culture per well. All plates were placed at 37°C overnight. […] Wells at and above the MIC should appear devoid of growth when visualized.

P. aeruginosa ATCC 27853 [1] = assay type: cell-based, Pseudomonas aeruginosa
Method: as §1

E. coli ATCC 25922 = settings: CLSI microdilution, 2-fold dilutions, ~5 x 10^5 cells/ml, 37°C, 18 hours; MIC = at least 80% growth inhibition
Method: as §2

P. aeruginosa ATCC 27853 [2] = test: Synergy with antibiotics (MIC); assay type: cell-based, Pseudomonas aeruginosa; settings: for MIC of the antibiotic alone: P. aeruginosa ATCC 27853; for MIC of the antibiotic in the presence of VSX-1: increasing amounts of VSX-1 (from 0.015 to 4 μg/mL), Fig 4 legend says P297
Method: as §1

[3] = 293T cells, 10,000 cells/well, three days, 37°C, CellTiter Glo luminescence
[4] = CLSI microdilution, 2-fold dilutions, ~5 x 10^5 cells/ml, 37°C, 18 hours, MIC = at least 80% growth inhibition
[5] = CLSI microdilution, 2-fold dilutions, ~5 x 10^5 cells/ml, 37°C, 18 hours, MIC = lowest concentration inhibiting growth by at least 80%

Molecule: CC[C@H](C)[C@H](NC(=O)CNC(=O)CNC(=O)CNC(=O)CN)C(=O)NCC(=O)N[C@@H](CCCCN)C(=O)N[C@@H](Cc1ccccc1)C(=O)N[C@@H](CC(C)C)C(=O)N[C@@H](CCCCN)C(=O)N[C@@H](CCCCN)C(=O)N[C@@H](C)C(=O)N[C@@H](CCCCN)C(=O)N[C@@H](CCCCN)C(=O)N[C@@H](Cc1ccccc1)C(=O)NCC(=O)N[C@@H](CCCCN)C(=O)N[C@@H](C)C(=O)N[C@@H](Cc1ccccc1)C(=O)N[C@H](C(=O)N[C@@H](CCCCN)C(=O)N[C@H](C(=O)N[C@@H](CC(C)C)C(=O)N[C@@H](CCCCN)C(=O)N[C@@H](CCCCN)C(=O)O)[C@@H](C)CC)C(C)C [P261] (H-GGGGIGKFLKKAKKFGKAFVKILKK-OH)
- Cytotox CC50 (293T human cell line; [3]): 250 µg/mL
- MIC P. aeruginosa ATCC 39324 (P. aeruginosa ATCC 39324; [4]): 8 µg/mL (≈ 3.02 µM)

Molecule: CC[C@H](C)[C@H](NC(=O)[C@@H](NC(=O)[C@@H]1CCCN1C(=O)[C@H](CO)NC(=O)[C@H](CC(C)C)NC(=O)[C@H](CCCCN)NC(=O)[C@H](CCCCN)NC(=O)[C@H](Cc1ccccc1)NC(=O)[C@H](CC(C)C)NC(=O)[C@H](CCCCN)NC(=O)[C@H](CCCCN)NC(=O)[C@H](Cc1ccccc1)NC(=O)[C@H](CCCCN)NC(=O)[C@H](CCCCN)NC(=O)[C@H](CCCNC(=N)N)NC(=O)[C@H](Cc1ccccc1)NC(=O)[C@H](CCCNC(=N)N)NC(=O)[C@H](CCCCN)NC(=O)[C@H](Cc1ccccc1)NC(=O)[C@H](CCCNC(=N)N)NC(=O)CNC(=O)CNC(=O)CNC(=O)CN)C(C)C)C(=O)N1CCC[C@H]1C(=O)N[C@@H](CC(C)C)C(=O)N[C@@H](CC(C)C)C(=O)N[C@@H](Cc1c[nH]cn1)C(=O)N[C@@H](CC(C)C)C(=O)NCC(=O)O [P267] (H-GGGGRFKRFRKKFKKLFKKLSPVIPLLHLG-OH)
- MIC S. aureus 29213 (S. aureus 29213; 29213, 18 h): 16 µg/mL (≈ 4.63 µM)
- MIC P. aeruginosa ATCC 39324 (P. aeruginosa ATCC 39324; ATCC 39324, 18 h): 4 µg/mL (≈ 1.16 µM)
- MIC P. aeruginosa ATCC 27853 (P. aeruginosa ATCC 27853 [1]; ATCC 27853, 18 h): 4 µg/mL (≈ 1.16 µM)

Molecule: CC[C@H](C)[C@H](NC(=O)[C@H](CCCCN)NC(=O)[C@H](CCCCN)NC(=O)[C@H](CC(C)C)NC(=O)[C@H](CCCCN)NC(=O)[C@H](CCC(=O)O)NC(=O)[C@H](CCCCN)NC(=O)[C@@H](NC(=O)[C@H](CCCCN)NC(=O)[C@H](CC(N)=O)NC(=O)[C@H](CCCNC(=N)N)NC(=O)[C@H](Cc1ccccc1)NC(=O)[C@H](CCCCN)NC(=O)[C@H](CCCNC(=N)N)NC(=O)[C@H](CC(C)C)NC(=O)[C@H](CCCNC(=N)N)NC(=O)[C@H](CCCCN)NC(=O)[C@H](CCCNC(=N)N)NC(=O)[C@H](CC(C)C)NC(=O)CNC(=O)CNC(=O)CNC(=O)CN)[C@@H](C)CC)C(=O)NCC(=O)N[C@@H](CCC(N)=O)C(=O)N[C@@H](CCCCN)C(=O)N[C@H](C(=O)N[C@@H](CCC(N)=O)C(=O)NCC(=O)N[C@@H](CC(C)C)C(=O)N[C@@H](CC(C)C)C(=O)N1CCC[C@H]1C(=O)N[C@@H](CCCCN)C(=O)N[C@@H](CC(C)C)C(=O)N[C@@H](C)C(=O)O)[C@@H](C)CC [P271] (H-GGGGLRKRLRKFRNKIKEKLKKIGQKIQGLLPKLA-OH)
- Cytotox CC50 (293T human cell line; [3]): 250 µg/mL
- MIC P. aeruginosa ATCC 39324 (P. aeruginosa ATCC 39324; [4]): 8 µg/mL (≈ 2.01 µM)

Molecule: CSCC[C@H](NC(=O)[C@H](CO)NC(=O)[C@H](C)NC(=O)[C@H](C)NC(=O)[C@H](C)NC(=O)[C@H](C)NC(=O)[C@H](C)NC(=O)[C@H](C)NC(=O)[C@H](C)NC(=O)[C@H](CC(N)=O)NC(=O)[C@H](C)NC(=O)[C@H](C)NC(=O)[C@@H](NC(=O)[C@H](CC(C)C)NC(=O)[C@H](C)NC(=O)[C@H](C)NC(=O)[C@H](C)NC(=O)[C@H](C)NC(=O)[C@H](C)NC(=O)[C@H](C)NC(=O)[C@H](CC(=O)O)NC(=O)[C@H](CO)NC(=O)[C@H](C)NC(=O)[C@@H](NC(=O)[C@H](Cc1c[nH]cn1)NC(=O)CNC(=O)CNC(=O)CN)[C@@H](C)O)[C@@H](C)O)C(=O)N[C@@H](C)C(=O)O [P292] (H-GGGHTASDAAAAAALTAANAAAAAAASMA-OH)
- MIC E. coli ATCC 25922 (E. coli ATCC 25922): > 128 µg/mL
- MIC S. aureus 29213 (S. aureus 29213; [4]): > 128 µg/mL
- Cytotox CC50 (293T human cell line; [3]): 250 µg/mL
- MIC P. aeruginosa ATCC 39324 (P. aeruginosa ATCC 39324; [4]): > 128 µg/mL
- MIC P. aeruginosa ATCC 27853 (P. aeruginosa ATCC 27853 [1]; [5]): > 128 µg/mL

Molecule: CC[C@H](C)[C@H](NC(=O)[C@H](CCCCN)NC(=O)[C@H](CCCNC(=N)N)NC(=O)CNC(=O)[C@H](CC(C)C)NC(=O)[C@H](CCCNC(=N)N)NC(=O)[C@H](CCCNC(=N)N)NC(=O)[C@H](CC(C)C)NC(=O)CNC(=O)[C@H](CCCNC(=N)N)NC(=O)CNC(=O)CNC(=O)CN)C(=O)N[C@@H](C)C(=O)N[C@@H](Cc1c[nH]cn1)C(=O)NCC(=O)N[C@H](C(=O)N[C@@H](CCCCN)C(=O)N[C@@H](CCCCN)C(=O)N[C@@H](Cc1ccc(O)cc1)C(=O)NCC(=O)N1CCC[C@H]1C(=O)N[C@H](C(=O)N[C@H](C(=O)N[C@@H](CC(C)C)C(=O)N[C@@H](CCCNC(=N)N)C(=O)N[C@H](C(=O)N[C@H](C(=O)N[C@@H](CCCCN)C(=O)N[C@@H](CCCCN)C(=O)N[C@@H](Cc1ccc(O)cc1)C(=O)NCC(=O)O)[C@@H](C)CC)[C@@H](C)CC)C(C)C)[C@@H](C)O)C(C)C [P294] (H-GGGRGLRRLGRKIAHGVKKYGPTVLRIIKKYG-OH)
- MIC P. aeruginosa ATCC 39324 (P. aeruginosa ATCC 39324; ATCC 39324, 18 h): 2 µg/mL (≈ 0.57 µM)

Molecule: CC[C@H](C)[C@H](NC(=O)[C@@H](NC(=O)[C@@H]1CCCN1C(=O)[C@H](CO)NC(=O)[C@H](CC(C)C)NC(=O)[C@H](CCCCN)NC(=O)[C@H](CCCCN)NC(=O)[C@H](Cc1ccccc1)NC(=O)[C@H](CC(C)C)NC(=O)[C@H](CCCCN)NC(=O)[C@H](CCCCN)NC(=O)[C@H](Cc1ccccc1)NC(=O)[C@H](CCCCN)NC(=O)[C@H](CCCCN)NC(=O)[C@H](CCCNC(=N)N)NC(=O)[C@H](Cc1ccccc1)NC(=O)[C@H](CCCNC(=N)N)NC(=O)[C@H](CCCCN)NC(=O)[C@H](Cc1ccccc1)NC(=O)[C@H](CCCNC(=N)N)NC(=O)CNC(=O)CNC(=O)CNC(=O)CN)C(C)C)C(=O)N1CCC[C@H]1C(=O)N[C@@H](CC(C)C)C(=O)N[C@@H](CC(C)C)C(=O)N[C@@H](Cc1c[nH]cn1)C(=O)N[C@@H](CC(C)C)C(=O)NCC(=O)O [P295] (H-GGGGRFKRFRKKFKKLFKKLSPVIPLLHLG-OH)
- Cytotox CC50 (293T human cell line): 95 µg/mL
- MIC P. aeruginosa ATCC 39324 (P. aeruginosa ATCC 39324; ATCC 39324, 18 h): 4 µg/mL (≈ 1.16 µM)
- MIC P. aeruginosa ATCC 27853 (P. aeruginosa ATCC 27853 [1]; ATCC 27853, 18 h): 4 µg/mL (≈ 1.16 µM)

Molecule: CC[C@H](C)[C@H](NC(=O)[C@@H](NC(=O)[C@H](CCCNC(=N)N)NC(=O)[C@@H]1CCCN1C(=O)[C@H](CCCCN)NC(=O)[C@H](CCCCN)NC(=O)[C@H](Cc1ccccc1)NC(=O)[C@H](Cc1ccccc1)NC(=O)[C@H](CCCCN)NC(=O)[C@H](CCCCN)NC(=O)[C@H](C)NC(=O)[C@H](CCCNC(=N)N)NC(=O)[C@H](CCCCN)NC(=O)[C@H](CCCCN)NC(=O)[C@@H](NC(=O)[C@H](CO)NC(=O)[C@H](CC(N)=O)NC(=O)[C@H](CCCCN)NC(=O)[C@H](CC(C)C)NC(=O)[C@H](CCCCN)NC(=O)[C@H](CCCCN)NC(=O)[C@H](Cc1ccccc1)NC(=O)[C@H](Cc1ccccc1)NC(=O)[C@H](CCCCN)NC(=O)[C@H](CCCCN)NC(=O)[C@H](Cc1ccccc1)NC(=O)[C@H](CCCNC(=N)N)NC(=O)[C@H](CCCCN)NC(=O)CNC(=O)CNC(=O)CN)C(C)C)C(C)C)C(=O)NCC(=O)N[C@H](C(=O)N[C@@H](CO)C(=O)N[C@H](C(=O)N1CCC[C@H]1C(=O)N[C@@H](Cc1ccccc1)C(=O)O)[C@@H](C)CC)C(C)C [P296] (H-GGGKRFKKFFKKLKNSVKKRAKKFFKKPRVIGVSIPF-OH)
- Cytotox CC50 (293T human cell line; [3]): 400 µg/mL
- MIC P. aeruginosa ATCC 39324 (P. aeruginosa ATCC 39324; [4]): 2 µg/mL (≈ 0.462 µM)
- MIC P. aeruginosa ATCC 27853 (P. aeruginosa ATCC 27853 [1]; [5]): 4 µg/mL (≈ 0.925 µM)

Molecule: C[C@@H](O)[C@H]1C(=O)N2C(C(=O)O)=C(S[C@@H]3CN[C@H](C(=O)N(C)C)C3)[C@H](C)[C@H]12 [meropenem]
- MIC of the antibiotic alone (P. aeruginosa ATCC 27853 [2]): 0.5 µg/mL
- MIC of the antibiotic in the presence of VSX-1 (P. aeruginosa ATCC 27853 [2]): < 0.1 µg/mL

Molecule: NC[C@H]1O[C@H](O[C@H]2[C@H](O)[C@@H](O[C@H]3O[C@H](CO)[C@@H](O)[C@H](N)[C@H]3O)[C@H](N)C[C@@H]2N)[C@H](N)C[C@@H]1O [tobramycin]
- synergy: MIC of the antibiotic in the presence of P297 (P. aeruginosa ATCC 27853 [2]; Fig 4 legend): did not exhibit an enhanced MIC

Molecule: colistin
- MIC of the antibiotic alone (P. aeruginosa ATCC 27853 [2]): ~ 1 μg/ml
- MIC of the antibiotic in the presence of VSX-1 (P. aeruginosa ATCC 27853 [2]): < 0.1 µg/mL
